Converted amounts (≈) assume the structure as drawn. The source made the active and inactive calls. The rule behind the calls is not given here.
Assays:
Enterococcus hirae [1] = assay: Antimicrobial activity against Enterococcus hirae ATCC 10541 at 20 ug by disk diffusion method; assay type: functional, organism-based
Pseudomonas aeruginosa [2] = assay: Antimicrobial activity against Pseudomonas aeruginosa ATCC 15442 at 20 ug by disk diffusion method; assay type: functional, organism-based
Escherichia coli [3] = assay: Antimicrobial activity against Escherichia coli ATCC 10536 at 20 ug by disk diffusion method; assay type: functional, organism-based
Candida albicans [4] = assay: Antimicrobial activity against Candida albicans ATCC 90029 at 20 ug by disk diffusion method; assay type: functional; conditions: read-out: IZ
Staphylococcus aureus [5] = assay: Antimicrobial activity against Staphylococcus aureus ATCC 6538 at 20 ug by disk diffusion method; assay type: functional, organism-based
Candida tropicalis [6] = assay: Antimicrobial activity against Candida tropicalis IP 2031 at 20 ug by disk diffusion method; assay type: functional; conditions: read-out: IZ
Enterococcus hirae [7] = assay: Antimicrobial activity against Enterococcus hirae ATCC 10541 by disk diffusion method; assay type: functional, organism-based
Staphylococcus aureus [8] = assay: Antimicrobial activity against Staphylococcus aureus ATCC 6538 by broth microdilution method; assay type: functional
Candida tropicalis [9] = assay: Antimicrobial activity against Candida tropicalis IP 2031 by broth microdilution method; assay type: functional
Escherichia coli [10] = assay: Antimicrobial activity against Escherichia coli ATCC 10536 by disk diffusion method; assay type: functional
Pseudomonas aeruginosa [11] = assay: Antimicrobial activity against Pseudomonas aeruginosa ATCC 15442 by disk diffusion method; assay type: functional, organism-based
Candida albicans [12] = assay: Antimicrobial activity against Candida albicans ATCC 90029 by disk diffusion method; assay type: functional, organism-based
Staphylococcus aureus [13] = assay: Antimicrobial activity against Staphylococcus aureus ATCC 6538 by disk diffusion method; assay type: functional
Candida tropicalis [14] = assay: Antimicrobial activity against Candida tropicalis IP 2031 by disk diffusion method; assay type: functional
Staphylococcus aureus [15] = assay: Antimicrobial activity against Staphylococcus aureus ATCC 6538 at 30 ug by disk diffusion method; assay type: functional, organism-based
Candida albicans [16] = assay: Antimicrobial activity against Candida albicans ATCC 90029 at 30 ug by disk diffusion method; assay type: functional, organism-based
Candida tropicalis [17] = assay: Antimicrobial activity against Candida tropicalis IP 2031 at 30 ug by disk diffusion method; assay type: functional, organism-based
Enterococcus hirae [18] = assay: Antimicrobial activity against Enterococcus hirae ATCC 10541 at 30 ug by disk diffusion method; assay type: functional, organism-based
Pseudomonas aeruginosa [19] = assay: Antimicrobial activity against Pseudomonas aeruginosa ATCC 15442 at 30 ug by disk diffusion method; assay type: functional, organism-based
Escherichia coli [20] = assay: Antimicrobial activity against Escherichia coli ATCC 10536 at 30 ug by disk diffusion method; assay type: functional; conditions: read-out: IZ
Staphylococcus aureus [21] = assay: Antimicrobial activity against Staphylococcus aureus ATCC 6538 at 10 ug by disk diffusion method; assay type: functional; conditions: read-out: IZ
Enterococcus hirae [22] = assay: Antimicrobial activity against Enterococcus hirae ATCC 10541 at 10 ug by disk diffusion method; assay type: functional, organism-based
Escherichia coli [23] = assay: Antimicrobial activity against Escherichia coli ATCC 10536 at 10 ug by disk diffusion method; assay type: functional, organism-based
Pseudomonas aeruginosa [24] = assay: Antimicrobial activity against Pseudomonas aeruginosa ATCC 15442 at 10 ug by disk diffusion method; assay type: functional, organism-based
Candida tropicalis [25] = assay: Antimicrobial activity against Candida tropicalis IP 2031 at 10 ug by disk diffusion method; assay type: functional, organism-based
Candida albicans [26] = assay: Antimicrobial activity against Candida albicans ATCC 90029 at 10 ug by disk diffusion method; assay type: functional, organism-based

Structure (SMILES) | Activity (Enterococcus hirae [7]) | MIC (Staphylococcus aureus [8]) [µg/mL] | MIC (Candida tropicalis [9]) [µg/mL] | Activity (Escherichia coli [10]) | Activity (Pseudomonas aeruginosa [11]) | Activity (Candida albicans [12]) | inhibition zone (IZ) (Staphylococcus aureus [13]) [mm] | inhibition zone (IZ) (Candida tropicalis [14]) [mm] | also measured
OC(Cn1cncn1)(Cn1cncn1)c1ccc(F)cc1F [FLUCONAZOLE] | – | – | – | – | – | – | – | – | Activity (Enterococcus hirae [1]): inactive; Activity (Pseudomonas aeruginosa [2]): inactive; Activity (Escherichia coli [3]): inactive; zone of inhibition at 20 µg/disc (Candida albicans [4]): 18 mm; Activity (Staphylococcus aureus [5]): inactive; zone of inhibition at 20 µg/disc (Candida tropicalis [6]): 21 mm
O=C(CS(=O)(=O)c1ccc(Cl)cc1)c1ccc([N+](=O)[O-])cc1 | inactive | 100 (≈ 294 µM) | 100 (≈ 294 µM) | inactive | inactive | inactive | 24 | 19 | –
O=C(N[C@H](CO)[C@H](O)c1ccc([N+](=O)[O-])cc1)C(Cl)Cl [CHLORAMPHENICOL] | – | – | – | – | – | – | – | – | Activity (Staphylococcus aureus [15]): inactive; Activity (Candida albicans [16]): inactive; Activity (Candida tropicalis [17]): inactive; Activity (Enterococcus hirae [18]): inactive; Activity (Pseudomonas aeruginosa [19]): inactive; zone of inhibition at 30 µg/disc (Escherichia coli [20]): 34 mm
O=C(CS(=O)(=O)c1ccc(F)cc1)c1ccc([N+](=O)[O-])cc1 | inactive | > 100 | > 100 | inactive | inactive | inactive | 25 | 19 | –
O=C(CS(=O)(=O)c1ccc([N+](=O)[O-])cc1)c1ccc([N+](=O)[O-])cc1 | inactive | 100 (≈ 285 µM) | 100 (≈ 285 µM) | inactive | inactive | inactive | 28 | 12 | –
CN[C@@H]1[C@H](O[C@H]2[C@H](O[C@H]3[C@H](O)[C@@H](O)[C@H](N=C(N)N)[C@@H](O)[C@@H]3N=C(N)N)O[C@@H](C)[C@]2(O)C=O)O[C@@H](CO)[C@H](O)[C@H]1O [STREPTOMYCIN] | – | – | – | – | – | – | – | – | zone of inhibition at 10 µg/disc (Staphylococcus aureus [21]): 27 mm; Activity (Enterococcus hirae [22]): inactive; Activity (Escherichia coli [23]): inactive; Activity (Pseudomonas aeruginosa [24]): inactive; Activity (Candida tropicalis [25]): inactive; Activity (Candida albicans [26]): inactive
O=C(CS(=O)(=O)c1ccc(I)cc1)c1ccc([N+](=O)[O-])cc1 | inactive | > 100 | > 100 | inactive | inactive | inactive | 11 | – | Activity (Candida tropicalis [14]): inactive
Nc1ccc(S(=O)(=O)c2ccc(N)cc2)cc1 [DAPSONE] | – | > 100 | > 100 | – | – | – | – | – | –
Cc1ccc(S(=O)(=O)CC(=O)c2ccc([N+](=O)[O-])cc2)cc1 | inactive | > 100 | > 100 | – | inactive | inactive | 11 | 22 | inhibition zone (IZ) (Escherichia coli [10]): 12 mm
O=C(c1ccc([N+](=O)[O-])cc1)C(Cc1ccccc1)S(=O)(=O)c1ccccc1 (centres undefined) | inactive | – | – | inactive | inactive | inactive | – | – | Activity (Staphylococcus aureus [13]): inactive; Activity (Candida tropicalis [14]): inactive
O=C(CS(=O)(=O)c1cccc2ccccc12)c1ccc([N+](=O)[O-])cc1 | inactive | > 100 | > 100 | inactive | inactive | inactive | 10 | 12 | –
